Test results from the supplement of paper PMC13380429.

Tests used:
[1] = test system: HepG2; experiment: relative viability EC50 (midpoint between 100% and the lowest measured viability); higher = less toxic; settings: 72 h
[2] = test system: Caco-2; experiment: as above; settings: 72 h
[3] = test system: Vero E6; experiment: as above; settings: 72 h
[4] = test system: Calu-3; experiment: as above; settings: 72 h
[5] = test system: U2OS; experiment: as above; settings: 72 h
[6] = test system: HepG2; experiment: cell viability relative to DMSO; higher = less toxic; settings: 72 h
[7] = test system: Caco-2; experiment: as above; settings: 72 h
[8] = test system: Vero E6; experiment: as above; settings: 72 h
[9] = test system: Calu-3; experiment: as above; settings: 72 h
[10] = test system: U2OS; experiment: as above; settings: 72 h
[11] = test system: HepG2; experiment: drug sensitivity score (DSS) for viability; higher = more toxic; extreme values may be limits of the assay; settings: 72 h
[12] = test system: Caco-2; experiment: as above; settings: 72 h
[13] = test system: Vero E6; experiment: as above; settings: 72 h
[14] = test system: Calu-3; experiment: as above; settings: 72 h
[15] = test system: U2OS; experiment: as above; settings: 72 h
[16] = test system: A549-ACE2 infected with SARS-CoV-2; experiment: SARS-CoV-2 infection rate relative to DMSO; higher = more infection; settings: 24 h
[17] = test system: A549-ACE2 infected with SARS-CoV-2; experiment: cell count relative to DMSO; higher = less toxic; settings: 24 h
[18] = test system: A549-ACE2; experiment: drug-induced phospholipidosis relative to tamoxifen; higher = more phospholipidosis
[19] = test system: A549-ACE2; experiment: phospholipidosis EC50; higher = less potent phospholipidosis inducer
[20] = test system: A549-ACE2 infected with SARS-CoV-2; experiment: morphology score (similarity to uninfected cells); higher = more like uninfected cells; settings: 24 h

OC1(c2ccc(Cl)c(C(F)(F)F)c2)CCN(CCCC(c2ccc(F)cc2)c2ccc(F)cc2)CC1 [penfluridol]
Settings | drug sensitivity score | relative viability EC50 [µM]
[1] | – | 3.34
[2] | – | 1.83
[3] | – | 3
[4] | – | 2.6
[5] | – | 2.6
[11] | 5.3 | –
[12] | 8.4 | –
[13] | 5.9 | –
[14] | 6.5 | –
[15] | 6.4 | –

Settings | SARS-CoV-2 infection rate [%] | cell count [%] | cell viability [%] | morphology score | phospholipidosis EC50 [µM]
[6], 1 nM | – | – | 106 | – | –
[6], 10 nM | – | – | 108 | – | –
[6], 100 nM | – | – | 104 | – | –
[6], 1000 nM | – | – | 103 | – | –
[6], 10000 nM | – | – | 0.2 | – | –
[7], 1 nM | – | – | 87.3 | – | –
[7], 10 nM | – | – | 74.2 | – | –
[7], 100 nM | – | – | 96.5 | – | –
[7], 1000 nM | – | – | 82.2 | – | –
[7], 10000 nM | – | – | 0.3 | – | –
[8], 1 nM | – | – | 105 | – | –
[8], 10 nM | – | – | 96.3 | – | –
[8], 100 nM | – | – | 94.1 | – | –
[8], 1000 nM | – | – | 97.8 | – | –
[8], 10000 nM | – | – | 0.1 | – | –
[9], 1 nM | – | – | 102 | – | –
[9], 10 nM | – | – | 95.2 | – | –
[9], 100 nM | – | – | 100 | – | –
[9], 1000 nM | – | – | 93.1 | – | –
[9], 10000 nM | – | – | 1 | – | –
[10], 1 nM | – | – | 99.4 | – | –
[10], 10 nM | – | – | 100 | – | –
[10], 100 nM | – | – | 104 | – | –
[10], 1000 nM | – | – | 93.2 | – | –
[10], 10000 nM | – | – | 3 | – | –
[16], 0.1 µM | 100 | – | – | – | –
[16], 0.3 µM | 102 | – | – | – | –
[16], 1 µM | 74 | – | – | – | –
[16], 3 µM | 8 | – | – | – | –
[17], 0.1 µM | – | 101 | – | – | –
[17], 0.3 µM | – | 94 | – | – | –
[17], 1 µM | – | 113 | – | – | –
[17], 3 µM | – | 95 | – | – | –
[19], 24 h | – | – | – | – | 0.874
[20], 0.1 µM | – | – | – | 0.06 | –
[20], 0.3 µM | – | – | – | 0.27 | –
[20], 1 µM | – | – | – | 0.55 | –
[20], 3 µM | – | – | – | 0.86 | –

drug-induced phospholipidosis [%], [18]
Settings | 0.3 µM | 0.833333 µM | 3.33333 µM | 6.66667 µM
24 h | 12.8 | 30.2 | 64.4 | 48.3
48 h | 13.8 | 28.2 | 67.6 | –
72 h | 16.8 | 26.4 | 77.7 | –

CCCOC(C(=O)OC1CCN(C)CC1)(c1ccccc1)c1ccccc1 [propiverine]
Settings | drug sensitivity score | relative viability EC50 [µM]
[1] | – | > 10
[2] | – | > 10
[3] | – | > 10
[4] | – | > 10
[5] | – | > 10
[11] | 0.4 | –
[12] | 0 | –
[13] | 0 | –
[14] | 0.4 | –
[15] | 0 | –

Settings | SARS-CoV-2 infection rate [%] | cell count [%] | cell viability [%] | morphology score | phospholipidosis EC50 [µM]
[6], 1 nM | – | – | 106 | – | –
[6], 10 nM | – | – | 109 | – | –
[6], 100 nM | – | – | 104 | – | –
[6], 1000 nM | – | – | 117 | – | –
[6], 10000 nM | – | – | 78 | – | –
[7], 1 nM | – | – | 102 | – | –
[7], 10 nM | – | – | 102 | – | –
[7], 100 nM | – | – | 102 | – | –
[7], 1000 nM | – | – | 95.5 | – | –
[7], 10000 nM | – | – | 89.7 | – | –
[8], 1 nM | – | – | 103 | – | –
[8], 10 nM | – | – | 95 | – | –
[8], 100 nM | – | – | 105 | – | –
[8], 1000 nM | – | – | 96.4 | – | –
[8], 10000 nM | – | – | 98.4 | – | –
[9], 1 nM | – | – | 93.5 | – | –
[9], 10 nM | – | – | 95.1 | – | –
[9], 100 nM | – | – | 100 | – | –
[9], 1000 nM | – | – | 105 | – | –
[9], 10000 nM | – | – | 80.4 | – | –
[10], 1 nM | – | – | 107 | – | –
[10], 10 nM | – | – | 99 | – | –
[10], 100 nM | – | – | 99.5 | – | –
[10], 1000 nM | – | – | 97.8 | – | –
[10], 10000 nM | – | – | 96.8 | – | –
[16], 0.3 µM | 95 | – | – | – | –
[16], 3 µM | 51 | – | – | – | –
[16], 10 µM | 17 | – | – | – | –
[16], 30 µM | 11 | – | – | – | –
[17], 0.3 µM | – | 101 | – | – | –
[17], 3 µM | – | 119 | – | – | –
[17], 10 µM | – | 120 | – | – | –
[17], 30 µM | – | 110 | – | – | –
[19], 24 h | – | – | – | – | 2.8
[19], 48 h | – | – | – | – | 4.22
[19], 72 h | – | – | – | – | 5.23
[20], 0.3 µM | – | – | – | 0.19 | –
[20], 3 µM | – | – | – | 0.77 | –
[20], 10 µM | – | – | – | 0.9 | –
[20], 30 µM | – | – | – | 0.74 | –

drug-induced phospholipidosis [%], [18]
Settings | 0.3 µM | 0.833333 µM | 3.33333 µM | 6.66667 µM | 10 µM | 30 µM
24 h | 2.28 | 8.59 | 66.7 | 91.7 | 105 | 109
48 h | 4.59 | 4.15 | 46.3 | 84.9 | 98.8 | 115
72 h | 4.64 | 4.08 | 43.7 | 80.2 | 95.8 | 123
